pIC50: −log10 of the molar value.
test system: U87MG cells; assay: Cellular assay, inhibition of 2-HG production in U87MG cells; format: cell-based; settings: Homo sapiens, U-87 MG, 48 h
Procedure, shortened: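 HT1080 or U87MG cells (U87MG kept with 500 ug/mL G418) seeded at 5000 cells/well and treated with compound at 0.2% final DMSO. Incubated 48 h at 37 °C. 2-HG inhibition determined by LC-MS. Viability read by CellTiter-Glo luminescence at 72 h post-dose.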

N#Cc1ccnc(N2C(=O)CC[C@H]2C(=O)N(c2cncc(F)c2)[C@H](C(=O)NC2CCC(F)(F)CC2)c2ccccc2Cl)c1 [Compound 193, (S)—N—((S)-1-(2-Chlorophenyl)-2-(4,4-difluorocyclohexylamino)-2-oxoethyl)-1-(4-cyanopyridin-2-yl)-N-(5-fluoropyridin-3-yl)-5-oxopyrrolidine-2-carboxamide] and N#Cc1ccnc(N2C(=O)CC[C@H]2C(=O)N(c2cc(F)cc(F)c2)[C@H](C(=O)NC2CCC(F)(F)CC2)c2ccccc2Cl)c1 [Compound 81, (2S)—N-(1-(2-Chlorophenyl)-2-(4,4-difluorocyclohexylamino)-2-oxoethyl)-1-(4-cyanopyridin-2-yl)-N-(3,5-difluorophenyl)-5-oxopyrrolidine-2-carboxamide] cannot be ordered by pIC50: over 7.00 for the first, over 7.00 for the second.

N#Cc1cc(C#N)cc(N(C(=O)[C@@H]2CCC(=O)N2c2cc(C#N)ccn2)[C@H](C(=O)NC2CC(F)(F)C2)c2ccccc2Cl)c1 [Compound 153, (S)—N—((S)-1-(2-Chlorophenyl)-2-((3,3-difluorocyclobutyl)amino)-2-oxoethyl)-1-(4-cyanopyridin-2-yl)-N-(3,5-dicyanophenyl)-5-oxopyrrolidine-2-carboxamide] and N#Cc1cc(F)cc(N(C(=O)[C@@H]2CCC(=O)N2c2cc(C#N)ccn2)[C@H](C(=O)NC2CC(F)(F)C2)c2ccccc2)c1 [Compound 211, (S)—N-(3-Cyano-5-fluorophenyl)-1-(4-cyanopyridin-2-yl)-N—((S)-2-(3,3-difluorocyclobutyl-amino)-2-oxo-1-phenylethyl)-5-oxopyrrolidine-2-carboxamide] cannot be ordered by pIC50: over 7.00 for the first, over 7.00 for the second.

N#Cc1ccnc(N2C(=O)CC[C@H]2C(=O)N(c2cccc(OCCO)c2)[C@H](C(=O)NC2CC(F)(F)C2)c2ccccc2Cl)c1 (single isomer, unassigned) [Compound 130] and CS(=O)(=O)Nc1cccc(N(C(=O)[C@@H]2CCC(=O)N2c2cc(C#N)ccn2)[C@H](C(=O)NC2CC(F)(F)C2)c2ccccc2Cl)c1 [Compound 159, (S)—N—((S)-1-(2-Chlorophenyl)-2-(3,3-difluorocyclobutylamino)-2-oxoethyl)-1-(4-cyanopyridin-2-yl)-N-(3-(methylsulfonamido)phenyl)-5-oxopyrrolidine-2-carboxamide] cannot be ordered by pIC50: over 7.00 for the first, over 7.00 for the second.

N#Cc1ccnc(N2C(=O)[C@@H](O)C[C@H]2C(=O)N(c2cc(F)cc(F)c2)[C@H](C(=O)NC2CCC(F)(F)CC2)c2ccccc2Cl)c1 [Compound 174, (2S,4S)—N—((S)-1-(2-Chlorophenyl)-2-((4,4-difluorocyclohexyl)amino)-2-oxoethyl)-1-(4-cyanopyridin-2-yl)-N-(3,5-difluorophenyl)-4-hydroxy-5-oxopyrrolidine-2-carboxamide] and N#Cc1ccnc(N2C(=O)[C@H](O)C[C@H]2C(=O)N(c2cc(F)cc(F)c2)[C@@H](C(=O)NC2CCC(F)(F)CC2)c2ccccc2Cl)c1 [Compound 124, (2S,4R)—N—((R)-1-(2-Chlorophenyl)-2-(4,4-difluorocyclohexylamino)-2-oxoethyl)-1-(4-cyanopyridin-2-yl)-N-(3,5-difluorophenyl)-4-hydroxy-5-oxopyrrolidine-2-carboxamide] cannot be ordered by pIC50: over 7.00 for the first, over 7.00 for the second.

CC(C)(C)OC(=O)N1CC(=O)N(c2nccc(C#N)n2)[C@H](C(=O)N(c2cc(F)cc(F)c2)[C@H](C(=O)NC2CC(F)(F)C2)c2ccccc2Cl)C1 [Compound 98, (3S)-tert-butyl 3-((1-(2-chlorophenyl)-2-((3,3-difluorocyclobutyl)amino)-2-oxoethyl)(3,5-difluorophenyl)carbamoyl)-4-(4-cyanopyrimidin-2-yl)-5-oxopiperazine-1-carboxylate] and N#Cc1ccnc(N2C(=O)CN(C3CC3)C[C@H]2C(=O)N(c2cc(F)cc(F)c2)[C@H](C(=O)NC2CC(F)(F)C2)c2ccccc2Cl)c1 [Compound 106, (S)—N—((S)-1-(2-chlorophenyl)-2-((3,3-difluorocyclobutyl)amino)-2-oxoethyl)-1-(4-cyanopyridin-2-yl)-4-cyclopropyl-N-(3,5-difluorophenyl)-6-oxopiperazine-2-carboxamide] cannot be ordered by pIC50: over 7.00 for the first, over 7.00 for the second.

O=C(NC1CCC(F)(F)CC1)[C@H](c1ccccc1Cl)N(C(=O)[C@@H]1CCC(=O)N1c1cscn1)c1cccc(F)c1 [Compound 74] and O=C(NC1CCC(F)(F)CC1)[C@H](c1ccccc1Cl)N(C(=O)[C@@H]1CCC(=O)N1c1ncccn1)c1cccc(F)c1 [Compound 4, (S)—N—((S)-1-(2-chlorophenyl)-2-((4,4-difluorocyclohexyl)amino)-2-oxoethyl)-N-(3-fluorophenyl)-5-oxo-1-(pyrimidin-2-yl)pyrrolidine-2-carboxamide] cannot be ordered by pIC50: over 7.00 for the first, over 7.00 for the second.

Compared with N#Cc1ccc(N2C(=O)CC[C@H]2C(=O)N(c2cccc(F)c2)[C@H](C(=O)NC2CC(F)(F)C2)c2ccccc2Cl)nc1 [Compound 47], N#Cc1ccnc(N2C(=O)OCC[C@H]2C(=O)N(c2cccc(F)c2)C(C(=O)NC2CC(F)(F)C2)c2ccccc2Cl)c1 (stereo partly drawn) [Compound 90, (4S)—N-(1-(2-Chlorophenyl)-2-(3,3-difluorocyclobutylamino)-2-oxoethyl)-3-(4-cyanopyridin-2-yl)-N-(3-fluorophenyl)-2-oxo-1,3-oxazinane-4-carboxamide] is higher in pIC50: 6.30 to 7.00 for the first, over 7.00 for the second. The second is the more potent here.

N#Cc1ccnc(N2C(=O)[C@@H](O)C[C@H]2C(=O)N(c2cccc(F)c2)[C@H](C(=O)NC2CC(F)(F)C2)c2ccccc2Cl)c1 [Compound 118, (2S,4S)—N—((S)-1-(2-Chlorophenyl)-2-(3,3-difluorocyclobutylamino)-2-oxoethyl)-1-(4-cyano-pyridin-2-yl)-N-(3-fluorophenyl)-4-hydroxy-5-oxopyrrolidine-2-carboxamide] and N#Cc1ccnc(N2C(=O)[C@H](F)C[C@H]2C(=O)N(c2cccc(F)c2)[C@H](C(=O)NC2CCC(F)(F)CC2)c2ccccc2Cl)c1 [Compound 151, (2S,4R)—N—((S)-1-(2-Chlorophenyl)-2-((4,4-difluorocyclohexyl)amino)-2-oxoethyl)-1-(4-cyanopyridin-2-yl)-4-fluoro-N-(3-fluorophenyl)-5-oxopyrrolidine-2-carboxamide] cannot be ordered by pIC50: over 7.00 for the first, over 7.00 for the second.

First: O=C(NC1CCC(F)(F)CC1)[C@H](c1ccccc1Cl)N(C(=O)[C@@H]1COC(=O)N1c1ncccn1)c1cccc(F)c1 [Compound 76, (S)—N—((S)-1-(2-Chlorophenyl)-2-((4,4-difluorocyclohexyl)amino)-2-oxoethyl)-N-(3-fluoro-phenyl)-2-oxo-3-(pyrimidin-2-yl)oxazolidine-4-carboxamide]
Second: O=C(NC1CC(F)(F)C1)[C@H](c1ccccc1Cl)N(C(=O)[C@@H]1COCC(=O)N1c1ncccn1)c1cccc(F)c1 [Compound 30, (S)—N—((S)-1-(2-chlorophenyl)-2-((3,3-difluorocyclobutyl)amino)-2-oxoethyl)-N-(3-fluorophenyl)-5-oxo-4-(pyrimidin-2-yl)morpholine-3-carboxamide]
The pIC50 of the first is higher: over 7.00 for the first, 6.30 to 7.00 for the second. The first is the more potent here.

CN(C)S(=O)(=O)c1cccc(N(C(=O)[C@@H]2CCC(=O)N2c2cc(C#N)ccn2)[C@H](C(=O)NC2CC(F)(F)C2)c2ccccc2Cl)c1 [Compound 156, (S)—N—((S)-1-(2-Chlorophenyl)-2-(3,3-difluorocyclobutylamino)-2-oxoethyl)-1-(4-cyanopyridin-2-yl)-N-(3-(N,N-dimethylsulfamoyl)phenyl)-5-oxopyrrolidine-2-carboxamide] and N#Cc1ccnc(N2C(=O)CC[C@H]2C(=O)N(c2cccc(F)c2F)[C@H](C(=O)NC2CC(F)(F)C2)c2ccccc2Cl)c1 [Compound 188, (S)—N—((S)-1-(2-Chlorophenyl)-2-((3,3-difluorocyclobutyl)amino)-2-oxoethyl)-1-(4-cyanopyridin-2-yl)-N-(2,3-difluorophenyl)-5-oxopyrrolidine-2-carboxamide] cannot be ordered by pIC50: over 7.00 for the first, over 7.00 for the second.

N#Cc1ccnc(N2C(=O)CC[C@H]2C(=O)N(c2cncc(F)c2)[C@H](C(=O)NC2CC(F)(F)C2)c2ccccc2F)c1 [Compound 148, (S)-1-(4-Cyanopyridin-2-yl)-N—((S)-2-((3,3-difluorocyclobutyl)amino)-1-(2-fluorophenyl)-2-oxoethyl)-N-(5-fluoropyridin-3-yl)-5-oxopyrrolidine-2-carboxamide] and N#Cc1ccnc(N2C(=O)CC[C@H]2C(=O)N(c2cc(F)cc(F)c2)[C@H](C(=O)NC2CC(F)(F)C2)c2ccccc2)c1 [Compound 210, (S)-1-(4-Cyanopyridin-2-yl)-N—((S)-2-(3,3-difluorocyclobutylamino)-2-oxo-1-phenylethyl)-N-(3,5-difluorophenyl)-5-oxopyrrolidine-2-carboxamide] cannot be ordered by pIC50: over 7.00 for the first, over 7.00 for the second.

First: O=C(NC1CC(F)(F)C1)C(c1ccccc1Cl)N(C(=O)[C@@H]1CCC(=O)N1c1ccccc1)c1cccc(F)c1 (some centres unmarked) [Compound 23]
Second: N#Cc1ccnc(N2C(=O)CC[C@H]2C(=O)N(c2cc(F)cc(C3CC3)c2)[C@H](C(=O)NC2CC(F)(F)C2)c2ccccc2Cl)c1 [Compound 204, (S)—N—((S)-1-(2-Chlorophenyl)-2-((3,3-difluorocyclobutyl)amino)-2-oxoethyl)-1-(4-cyanopyridin-2-yl)-N-(3-cyclopropyl-5-fluorophenyl)-5-oxopyrrolidine-2-carboxamide]
The pIC50 of the first is lower: 6.30 to 7.00 for the first, over 7.00 for the second.

N#Cc1ccnc(N2C(=O)OCC[C@H]2C(=O)N(c2cc(F)cc(F)c2)[C@H](C(=O)NC2CC(F)(F)C2)c2ccccc2Cl)c1 [Compound 133, (S)—N—((S)-1-(2-Chlorophenyl)-2-((3,3-difluorocyclobutyl)amino)-2-oxoethyl)-3-(4-cyanopyridin-2-yl)-N-(3,5-difluorophenyl)-2-oxo-1,3-oxazinane-4-carboxamide] and N#Cc1ccnc(N2C(=O)OCC[C@H]2C(=O)N(c2cc(F)cc(F)c2)[C@H](C(=O)NC2CCC(F)(F)CC2)c2ccccc2Cl)n1 [Compound 144, (S)—N—((S)-1-(2-Chlorophenyl)-2-((4,4-difluorocyclohexyl)amino)-2-oxoethyl)-3-(4-cyanopyrimidin-2-yl)-N-(3,5-difluorophenyl)-2-oxo-1,3-oxazinane-4-carboxamide] cannot be ordered by pIC50: over 7.00 for the first, over 7.00 for the second.

Source: patent US10640534B2 (Agios Pharmaceuticals, Inc., priority 2012, dated 2020)
